Source: ChEMBL document CHEMBL3425494, “Design, synthesis, and antitumor evaluation of novel histone deacetylase inhibitors equipped with a phenylsulfonylfuroxan module as a nitric oxide donor” (J Med Chem, 2015)

How the values were obtained:
[1] = biological target: Histone deacetylase (HDAC1 and HDAC2) (Homo sapiens, UniProt Q13547+Q92769); test: Inhibition of HDAC1/HDAC2 in human HeLa cells using Boc-Lys(acetyl)-AMC as substrate after 30 mins by fluorescence assay; assay type: cell-based
[2] = system: HEL; test: Cytotoxicity against human HEL cells assessed as growth inhibition after 48 hrs by MTT assay; assay type: functional, cell-based
[3] = Cytotoxicity against human U937 cells assessed as growth inhibition after 48 hrs by MTT assay; assay type: functional, cell-based; conditions: U-937, 48 h
[4] = Cytotoxicity against human 3AO cells assessed as growth inhibition after 48 hrs by MTT assay; assay type: functional, cell-based
[5] = Cytotoxicity against human MDA cells assessed as growth inhibition after 48 hrs by MTT assay; assay type: functional, cell-based
[6] = Cytotoxicity against human ES2 cells assessed as growth inhibition after 48 hrs by MTT assay; assay type: functional, cell-based; conditions: ES-2, 48 h
[7] = Cytotoxicity against human KG1 cells assessed as growth inhibition after 48 hrs by MTT assay; assay type: functional, cell-based; conditions: KG-1, 48 h
[8] = system: HEL; test: Cytotoxicity against human HEL cells assessed as growth inhibition after 48 hrs by MTT assay in presence of SAHA; assay type: functional, cell-based
[9] = system: HEL; test: Cell cycle arrest in human HEL cells assessed as accumulation at G1 phase at 0.5 uM after 48 hrs by propidium iodide staining-based flow cytometric analysis (reference value: 47.87%); assay type: functional
[10] = system: HEL; test: Cell cycle arrest in human HEL cells assessed as accumulation at G2 phase at 0.5 uM after 48 hrs by propidium iodide staining-based flow cytometric analysis (reference value: 5.28%); assay type: functional
[11] = system: HEL; test: Cell cycle arrest in human HEL cells assessed as accumulation at S phase at 0.5 uM after 48 hrs by propidium iodide staining-based flow cytometric analysis (reference value: 46.88%); assay type: functional
[12] = Cytotoxicity against human HCT116 cells assessed as growth inhibition after 48 hrs by MTT assay; assay type: functional, cell-based; conditions: HCT-116, 48 h
[13] = system: HeLa; test: Cytotoxicity against human HeLa cells assessed as growth inhibition after 48 hrs by MTT assay; assay type: functional, cell-based

Row | IC50 [1] [µM] | Structure (SMILES) | IC50 [2] [µM] | IC50 [3] [µM] | IC50 [4] [µM] | IC50 [5] [µM] | IC50 [6] [µM] | IC50 [7] [µM] | IC50 [8] [µM] | Activity [9] [%] | Activity [10] [%] | Activity [11] [%] | IC50 [12] [µM] | IC50 [13] [µM]
1 | 1.6 | O=C(NO)c1cccc(Oc2no[n+]([O-])c2S(=O)(=O)c2ccccc2)c1 | 2.6 | 6.49 | 9.94 | 13.9 | 4.19 | 1.86 |  |  |  |  | 4.57 | 4.67
2 | 0.14 | O=C(Cc1ccc(Oc2no[n+]([O-])c2S(=O)(=O)c2ccccc2)cc1)NO | 13 | 5.01 | 22.2 | 15 | 4.13 | 1.8 |  |  |  |  | 14.2 | 10.4
3 | 0.047 | O=C(NO)c1ccc(Oc2no[n+]([O-])c2S(=O)(=O)c2ccccc2)cc1 | 0.92 | 4.73 | 4.35 | 6.66 | 2.19 | 1.24 |  |  |  |  | 2.7 | 1.73
4 | 0.15 | O=C(/C=C/c1ccc(Oc2no[n+]([O-])c2S(=O)(=O)c2ccccc2)cc1)NO | 2.41 | 16.1 | 38.1 | 25.6 | 24.1 | 2.75 |  |  |  |  | 8.09 | 10.4
5 | 3.7 | O=C(/C=C/COc1no[n+]([O-])c1S(=O)(=O)c1ccccc1)NO |  |  | 57.7 | 47.7 | 19.1 |  |  |  |  |  |  | 8.74
6 | 0.13 | O=C(CCCCOc1no[n+]([O-])c1S(=O)(=O)c1ccccc1)NO | 1.03 | 2.91 | 4.3 | 2.53 | 2.53 | 1.91 |  |  |  |  | 2.18 | 3.65
7 | 7.3 | COc1cc(C(=O)NO)ccc1Oc1no[n+]([O-])c1S(=O)(=O)c1ccccc1 | 5.55 | 3.64 | 1.24 | 8.02 | 3.55 | 1.65 |  |  |  |  | 5.03 | 2.26
8 | 0.047 | O=C(CCCOc1no[n+]([O-])c1S(=O)(=O)c1ccccc1)NO | 0.67 | 3.3 | 22 | 6.2 | 3.78 | 1.48 |  |  |  |  |  | 4.79

More lines, now with the values behind:

Row | Structure (SMILES) | IC50 [1] [µM] | IC50 [2] [µM] | IC50 [3] [µM] | IC50 [4] [µM] | IC50 [5] [µM] | IC50 [6] [µM] | IC50 [7] [µM] | IC50 [8] [µM] | Activity [9] [%] | Activity [10] [%] | Activity [11] [%] | IC50 [12] [µM] | IC50 [13] [µM]
9 | CC(C)(COc1no[n+]([O-])c1S(=O)(=O)c1ccccc1)C(=O)NO | > 1000 | 5.01 | 12.5 | 18.3 | 9.55 | 6.88 | 6.08 |  |  |  |  |  | 
10 | O=S(=O)(c1ccccc1)c1no[n+]([O-])c1S(=O)(=O)c1ccccc1 | > 1000 | 0.69 |  |  |  |  |  | 0.53 | 53.4 | 3.3 | 43.29 |  | 
11 | O=C(COCCOCCOc1no[n+]([O-])c1S(=O)(=O)c1ccccc1)NO | 4.3 | 3.73 | 12.1 | 19.4 | 15.8 | 18.1 | 5.38 |  |  |  |  | 11.7 | 5.14
12 | O=S(=O)(c1ccccc1)c1c(OCCCCCCO)no[n+]1[O-] | > 1000 | 2.16 |  |  |  |  |  |  |  |  |  |  | 
13 | O=C(CCCCCCCOc1no[n+]([O-])c1S(=O)(=O)c1ccccc1)NO | 0.063 | 10.8 | 9.3 |  | 2.7 | 1.32 | 0.63 |  |  |  |  |  | 5.03
14 | O=C(COCCOc1no[n+]([O-])c1S(=O)(=O)c1ccccc1)NO | 1.5 | 6.79 | 8.15 | 19.8 | 15.1 | 8.69 | 7.4 |  |  |  |  | 13.4 | 
15 | O=C(CCCCCCC(=O)Nc1ccccc1)NO [VORINOSTAT] |  |  |  |  |  |  |  |  |  | 0 | 20.02 |  | 
16 | CCCC(C)(COc1no[n+]([O-])c1S(=O)(=O)c1ccccc1)C(=O)NO (stereo not drawn) | > 1000 | 71.5 | 25.4 | 88.7 | 60.5 | 93.3 | 4.06 |  |  |  |  | 66.1 | 
17 | O=C(CCCCCCOc1no[n+]([O-])c1S(=O)(=O)c1ccccc1)NO | 0.054 | 9.33 | 9.93 |  | 1.21 | 7.73 | 4.27 |  |  |  |  | 4.69 | 
